Assay results as given in patent US9957269B2, “S-imino-S-oxo iminothiazine compounds as bace inhibitors, compositions, and their use” (Merck Sharp & Dohme Corp., priority 2014, dated 2018).

How the values were obtained:
[1] = target: T1, purified human autoBACE-2 (Homo sapiens, UniProt Q9Y5Z0); experiment: BACE-2 Assay (BACE-HTRF assay); type: biochemical; settings: Ki calculated from IC50 using the Cheng-Prusoff equation; QSY7-EISEVNLDAEFC-Eu-amide substrate 200 nM, pH 5.0; read-out: BACE2 Ki
T1 sequence (Q9Y5Z0 63-473 limits assumed): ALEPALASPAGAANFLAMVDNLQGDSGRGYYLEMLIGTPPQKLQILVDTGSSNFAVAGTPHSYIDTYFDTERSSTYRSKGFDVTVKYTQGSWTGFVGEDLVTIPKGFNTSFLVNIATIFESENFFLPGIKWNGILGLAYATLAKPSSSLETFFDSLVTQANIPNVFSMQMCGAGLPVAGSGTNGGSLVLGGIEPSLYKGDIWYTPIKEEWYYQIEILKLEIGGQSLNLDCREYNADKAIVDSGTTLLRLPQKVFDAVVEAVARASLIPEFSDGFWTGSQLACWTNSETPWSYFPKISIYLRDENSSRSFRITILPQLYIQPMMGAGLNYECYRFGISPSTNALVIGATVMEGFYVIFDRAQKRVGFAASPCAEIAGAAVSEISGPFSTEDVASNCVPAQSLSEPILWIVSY
Experimental: Inhibitor IC50s at purified human autoBACE-2 are determined in a time-resolved endpoint proteolysis assay that measures hydrolysis of the QSY7-EISEVNLDAEFC-Eu-amide FRET peptide substrate (BACE-HTRF assay). BACE-mediated hydrolysis of this peptide results in an increase in relative fluorescence (RFU) at 620 nm after excitation with 320 nm light. Inhibitor compounds, prepared at 3× the desired final concentration in 1× BACE assay buffer (20 mM sodium acetate pH 5.0, 10% glycerol, 0.1% Brij-35) supplemented with 7.5% DMSO are pre-incubated with an equal volume of autoBACE-2 enzyme diluted in 1× BACE assay buffer (final enzyme concentration 1 nM) in black 384-well NUNC plates for 30 minutes at 30° C. […] DMSO is present at 5% final concentration in the assay. Following laser excitation of sample wells at 320 nm, the fluorescence signal at 620 nm is collected for 400 ms following a 50 μs delay on a RUBYstar HTRF plate reader (BMG Labtechnologies). Raw RFU data is normalized to maximum (1.0 nM BACE/DMSO) and minimum (no enzyme/DMSO) RFU values. IC50s are determined by nonlinear regression analysis (sigmoidal dose response, variable slope) of percent inhibition data with minimum and maximum values set to 0 and 100 percent respectively. Similar IC50s are obtained when using raw RFU data. The Ki values are calculated from the IC50 using the Cheng-Prusoff equation.

[2] = target: soluble human BACE1 catalytic domain (Homo sapiens, UniProt P56817); experiment: BACE1 HTRF FRET Assay; type: biochemical; settings: Ki calculated from IC50 using the Cheng-Prusoff equation; QSY7-APPswe-Eu substrate 200 nM, pH 5.0
Chain of soluble human BACE1 catalytic domain (P56817 75-416 limits assumed): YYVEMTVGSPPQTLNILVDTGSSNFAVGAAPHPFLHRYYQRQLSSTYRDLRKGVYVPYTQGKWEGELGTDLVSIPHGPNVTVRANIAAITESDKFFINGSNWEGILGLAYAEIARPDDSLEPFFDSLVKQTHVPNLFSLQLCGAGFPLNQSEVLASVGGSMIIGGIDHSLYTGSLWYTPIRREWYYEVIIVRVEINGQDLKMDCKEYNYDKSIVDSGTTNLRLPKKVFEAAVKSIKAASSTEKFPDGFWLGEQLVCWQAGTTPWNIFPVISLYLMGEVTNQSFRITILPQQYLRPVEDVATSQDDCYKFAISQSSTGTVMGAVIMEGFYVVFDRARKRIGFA
Excerpt: Na^+-Acetate pH 5.0; 1% Brij-35; Glycerol; Dimethyl Sulfoxide (DMSO); Recombinant human soluble BACE1 catalytic domain (>95% pure); APP Swedish mutant peptide substrate (QSY7-APP^swe-Eu): QSY7-EISEVNLDAEFC-Europium-amide.
A homogeneous time-resolved FRET assay can be used to determine IC50 values for inhibitors of the soluble human BACE1 catalytic domain. This assay monitors the increase of 620 nm fluorescence that resulted from BACE1 cleavage of an APPswedish APP^swe mutant peptide FRET substrate (QSY7-EISEVNLDAEFC-Europium-amide). This substrate contains an N-terminal QSY7 moiety that serves as a quencher of the C-terminal Europium fluorophore (620 nm Em). In the absence of enzyme activity, 620 nm fluorescence is low in the assay and increased linearly over 3 hours in the presence of uninhibited BACE1 enzyme. Inhibition of BACE1 cleavage of the QSY7-APP^swe-Eu substrate by inhibitors is manifested as a suppression of 620 nm fluorescence.
Varying concentrations of inhibitors at 3× the final desired concentration in a volume of 10 ul are preincubated with purified human BACE1 catalytic domain (3 nM in 10 μl) for 30 minutes at 30° C. in reaction buffer containing 20 mM Na-Acetate pH 5.0, 10% glycerol, 0.1% Brij-35 and 7.5% DSMO. Reactions are initiated by addition of 10 μl of 600 nM QSY7-APP^swe-Eu substrate (200 nM final) to give a final reaction volume of 30 μl in a 384 well Nunc HTRF plate. The reactions are incubated at 30° C. for 1.5 hours. The 620 nm fluorescence is then read on a Rubystar HTRF plate reader (BMG Labtechnologies) using a 50 millisecond delay followed by a 400 millisecond acquisition time window. Inhibitor IC50 values are derived from non-linear regression analysis of concentration response curves. Ki values are then calculated from IC50 values using the Cheng-Prusoff equation using a previously determined […] of 8 μM for the QSY7-APP^swe-Eu substrate at BACE.

Ki [1] [nM] | Ki [2] [nM] | SMILES
16 | 14 | CN=[S@@]1(=O)C[C@@](C)(c2cc(Nc3nccc4nc(OC)cnc34)ccc2F)NC(=N)C1(C)C [Example 1, (1R,5R)-5-(2-fluoro-5-((2-methoxypyrido[3,4-b]pyrazin-5-yl)amino)phenyl)-3-imino-2,2,5-trimethyl-1-(methylimino)-1λ^6-thiomorpholine 1-oxide]
75 | 98 | CN=[S@@]1(=O)C[C@@](C)(c2cc(Nc3ccnc4cc(OC)cnc34)ccc2F)NC(=N)C1(C)C [Example 2, (1R,5R)-5-(2-fluoro-5-((7-methoxy-1,5-naphthyridin-4-yl)amino)phenyl)-3-imino-2,2,5-trimethyl-1-(methylimino)-1λ^6-thiomorpholine 1-oxide]
25 | 28 | CN=[S@]1(=O)C[C@@](C)(c2cc(Nc3nccc4cc(OC)cnc34)ccc2F)NC(=N)C1(C)C [Example 4, (1S,5R)-5-(2-fluoro-5-((3-methoxy-1,7-naphthyridin-8-yl)amino)phenyl)-3-imino-2,2,5-trimethyl-1-(methylimino)-1λ^6-thiomorpholine 1-oxide]
– | 1160 | CN=[S@]1(=O)C[C@@](C)(c2cc(Nc3ccnc4nc(OC)cnc34)ccc2F)NC(=N)C1(C)C [Example 5, (1S,5R)-5-(2-fluoro-5-((3-methoxypyrido[2,3-b]pyrazin-8-yl)amino)phenyl)-3-imino-2,2,5-trimethyl-1-(methylimino)-1λ^6-thiomorpholine 1-oxide]
2 | 4 | CN=[S@]1(=O)C[C@@](C)(c2cc(Nc3nccc4cc(Br)cnc34)ccc2F)NC(=N)C1(C)C [Example 6, (1S,5R)-5-(5-((3-bromo-1,7-naphthyridin-8-yl)amino)-2-fluorophenyl)-3-imino-2,2,5-trimethyl-1-(methylimino)-1λ^6-thiomorpholine 1-oxide]
– | 10 | CN=[S@]1(=O)C[C@@](C)(c2cc(Nc3ncnc4cc(Br)cnc34)ccc2F)NC(=N)C1(C)C [Example 7, (1S,5R)-5-(5-((7-bromopyrido[3,2-d]pyrimidin-4-yl)amino)-2-fluorophenyl)-3-imino-2,2,5-trimethyl-1-(methylimino)-1λ^6-thiomorpholine 1-oxide]
1 | 3 | CN=[S@@]1(=O)C[C@@](C)(c2cc(Nc3ncnc4cc(Br)cnc34)ccc2F)NC(=N)C1(C)C [Example 8, (1R,5R)-5-(5-((7-bromopyrido[3,2-d]pyrimidin-4-yl)amino)-2-fluorophenyl)-3-imino-2,2,5-trimethyl-1-(methylimino)-1λ^6-thiomorpholine 1-oxide]
6 | 24 | CN=[S@]1(=O)C[C@@](C)(c2cc(Nc3ncccc3OC)ccc2F)NC(=N)C1(C)C [Example 9, (1S,5R)-5-(2-fluoro-5-((3-methoxypyridin-2-yl)amino)phenyl)-3-imino-2,2,5-trimethyl-1-(methylimino)-1λ^6-thiomorpholine 1-oxide]
